Molecular target: NaV 1.8 channel (Homo sapiens, UniProt Q9Y5Y9)
Test: Activity against NaV 1.8 channel (optical membrane potential assay)
Assay type: cell-based
Method: Compounds of the invention are useful as antagonists of voltage-gated sodium ion channels. Antagonist properties of test compounds were assessed as follows. Cells expressing the NaV of interest were placed into microtiter plates. After an incubation period, the cells were stained with fluorescent dyes sensitive to the transmembrane potential. The test compounds were added to the microtiter plate. The cells were stimulated with either a chemical or electrical means to evoke a NaV dependent membrane potential change from unblocked channels, which was detected and measured with trans-membrane potential-sensitive dyes. Antagonists were detected as a decreased membrane potential response to the stimulus. The optical membrane potential assay utilized voltage-sensitive FRET sensors described by Gonzalez and Tsien (See, Gonzalez, J. E. and R. Y. Tsien (1995) “Voltage sensing by fluorescence resonance energy transfer in single cells” Biophys J 69(4): 1272-80, and Gonzalez, J. E. and R. Y. Tsien (1997) “Improved indicators of cell membrane potential that use fluorescence resonance energy transfer” Chem Biol 4(4): 269-77) in combination with instrumentation for measuring fluorescence changes such as the Voltage/Ion Probe Reader (VIPR®) (See, Gonzalez, J. E., K. Oades, et al. (1999) “Cell-based assays and instrumentation for screening ion-channel targets” Drug Discov Today 4(9): 431-439).
24 hours before the assay on VIPR, CHO cells endogenously expressing a NaV1.2 type voltage-gated NaV are seeded in 96-well poly-lysine coated plates at 60,000 cells per well. Other subtypes are performed in an analogous mode in a cell line expressing the NaV of interest. • 1) On the day of the assay, medium is aspirated and cells are washed twice with 225 μL of Bath Solution #2 (BS#2). • 2) A 15 uM CC2-DMPE solution is prepared by mixing 5 mM coumarin stock solution with 10% Pluronic 127 1:1 and then dissolving the mix in the appropriate volume of BS#2. • 3) After bath solution is removed from the 96-well plates, the cells are loaded with 80 μL of the CC2-DMPE solution. Plates are incubated in the dark for 30 minutes at room temperature. • 4) While the cells are being stained with coumarin, a […] solution in BS#2 is prepared. In addition to DiSBAC2(3), this solution should contain 0.75 mM ABSCl and […] (prepared from 10 mM EtOH stock, Sigma #V-5754). • 5) After 30 minutes, CC2-DMPE is removed and the cells are washed twice with 225 μL of BS#2. As before, the residual volume should be 40 μL. • 6) Upon removing the bath, the cells are loaded with 80 μL of the DiSBAC2(3) solution, after which test compound, dissolved in DMSO, is added to achieve the desired test concentration to each well from the drug addition plate and mixed thoroughly. The volume in the well should be roughly 121 μL. The cells are then incubated for 20-30 minutes. • 7) Once the incubation is complete, the cells are ready to be assayed on VIPR® with a sodium add back protocol. 120 μL of Bath solution #1 is added to stimulate the NaV dependent depolarization. […] was used as an antagonist positive control for block of the NaV channel.
Data are analyzed and reported as normalized ratios of background-subtracted emission intensities measured in the 460 nm and 580 nm channels. Background intensities are then subtracted from each assay channel. Background intensities are obtained by measuring the emission intensities during the same time periods from identically treated assay wells in which there are no cells. The response as a function of time is then reported as the ratios obtained using the following formula: […]
The data is further reduced by calculating the initial (Ri) and final (Rf) ratios. These are the average ratio values during part or all of the pre-stimulation period, and during sample points during the stimulation period. The response to the stimulus R=Rf/Ri is then calculated. […]

NaV 1.8 channel, sequence (Q9Y5Y9 whole entry): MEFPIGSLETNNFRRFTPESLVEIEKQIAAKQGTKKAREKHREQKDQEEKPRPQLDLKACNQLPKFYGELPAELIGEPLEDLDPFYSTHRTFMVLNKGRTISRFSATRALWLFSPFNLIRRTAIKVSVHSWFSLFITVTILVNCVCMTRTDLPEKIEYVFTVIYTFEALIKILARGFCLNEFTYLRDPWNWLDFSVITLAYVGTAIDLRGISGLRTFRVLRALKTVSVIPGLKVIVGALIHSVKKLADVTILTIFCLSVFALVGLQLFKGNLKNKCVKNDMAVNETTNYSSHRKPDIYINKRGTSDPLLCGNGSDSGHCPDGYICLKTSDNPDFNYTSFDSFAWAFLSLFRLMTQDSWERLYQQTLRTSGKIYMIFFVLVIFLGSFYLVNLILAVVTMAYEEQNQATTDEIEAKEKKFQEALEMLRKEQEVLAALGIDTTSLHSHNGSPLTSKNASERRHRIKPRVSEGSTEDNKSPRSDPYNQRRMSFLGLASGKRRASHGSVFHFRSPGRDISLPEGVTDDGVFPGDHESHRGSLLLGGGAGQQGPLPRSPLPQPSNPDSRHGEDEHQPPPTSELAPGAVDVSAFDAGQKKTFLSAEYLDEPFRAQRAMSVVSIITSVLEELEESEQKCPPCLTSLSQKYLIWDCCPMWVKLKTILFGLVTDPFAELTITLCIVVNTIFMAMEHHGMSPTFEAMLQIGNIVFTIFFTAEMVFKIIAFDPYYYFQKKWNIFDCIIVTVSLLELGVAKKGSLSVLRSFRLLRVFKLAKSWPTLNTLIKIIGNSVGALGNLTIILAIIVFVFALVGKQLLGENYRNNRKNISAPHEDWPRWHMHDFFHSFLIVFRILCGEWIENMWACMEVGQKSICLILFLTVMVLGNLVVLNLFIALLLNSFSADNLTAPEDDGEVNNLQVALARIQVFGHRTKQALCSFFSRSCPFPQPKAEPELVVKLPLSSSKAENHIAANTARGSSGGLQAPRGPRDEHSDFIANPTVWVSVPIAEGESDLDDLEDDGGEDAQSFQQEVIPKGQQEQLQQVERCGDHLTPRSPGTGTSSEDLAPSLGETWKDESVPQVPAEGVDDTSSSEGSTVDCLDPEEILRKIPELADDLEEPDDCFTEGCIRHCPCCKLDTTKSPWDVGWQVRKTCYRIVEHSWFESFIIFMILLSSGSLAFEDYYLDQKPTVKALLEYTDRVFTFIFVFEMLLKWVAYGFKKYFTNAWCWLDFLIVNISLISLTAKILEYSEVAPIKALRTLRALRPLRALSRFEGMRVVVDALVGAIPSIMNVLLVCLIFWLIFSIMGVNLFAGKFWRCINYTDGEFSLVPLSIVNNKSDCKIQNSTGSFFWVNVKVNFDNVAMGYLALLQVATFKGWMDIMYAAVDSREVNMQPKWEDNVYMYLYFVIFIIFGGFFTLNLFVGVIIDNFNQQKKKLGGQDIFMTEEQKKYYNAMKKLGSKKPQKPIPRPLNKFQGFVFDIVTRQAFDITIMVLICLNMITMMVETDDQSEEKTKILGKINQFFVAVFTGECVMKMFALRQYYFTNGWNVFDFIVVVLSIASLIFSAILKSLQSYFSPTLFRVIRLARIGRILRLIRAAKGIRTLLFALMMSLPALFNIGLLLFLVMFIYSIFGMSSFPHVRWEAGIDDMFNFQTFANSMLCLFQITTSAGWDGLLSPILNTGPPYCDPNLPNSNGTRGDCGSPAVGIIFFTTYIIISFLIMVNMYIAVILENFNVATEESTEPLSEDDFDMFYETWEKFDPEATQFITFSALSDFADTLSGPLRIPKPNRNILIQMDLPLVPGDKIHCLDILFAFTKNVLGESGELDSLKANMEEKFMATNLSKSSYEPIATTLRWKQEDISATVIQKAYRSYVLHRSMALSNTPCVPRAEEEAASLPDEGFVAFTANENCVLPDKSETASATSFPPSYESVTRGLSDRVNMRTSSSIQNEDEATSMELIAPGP

SMILES	IC50
CCC(C)(O)C(=O)N1CCN(c2nc(-c3ccccc3O)nc3ccccc23)CC1 (stereo not shown) [Example 129, 2-Hydroxy-1-(4-(2-(2-hydroxyphenyl)quinazolin-4-yl)piperazin-1-yl)-2-methylbutan-1-one]	> 10 µM
Cc1ccc2c(N3CCN(C(=O)[C@H](O)Cc4ccccc4)CC3)nc(-c3ccccc3O)nc2c1 [Example 130, (R)-2-Hydroxy-1-{4-[2-(2-hydroxy-phenyl)-7-methyl-quinazolin-4-yl]-piperazin-1-yl}-3-phenylpropan-1-one]	> 10 µM
Cc1ccc2c(N3CCN(C(=O)[C@@H](O)Cc4ccccc4)CC3)nc(-c3ccccc3O)nc2c1 [Example 131, (S)-2-Hydroxy-1-{4-[2-(2-hydroxy-phenyl)-7-methyl-quinazolin-4-yl]-piperazin-1-yl}-3-phenylpropan-1-one]	> 10 µM
Cc1ccc2c(N3CCN(C(=O)OCc4cccnc4)CC3)nc(-c3ccccc3O)nc2c1 [Example 132, (Pyridin-3-yl)methyl 4-(2-(2-hydroxyphenyl)-7-methylquinazolin-4-yl)piperazine-1-carboxylate]	2 to 10 µM
Cc1ccc2c(N3CCN(C(=O)CCc4ccccn4)CC3)nc(-c3ccccc3O)nc2c1 [Example 133, 1-(4-(2-(2-Hydroxyphenyl)-7-methylquinazolin-4-yl)piperazin-1-yl)-3-(pyridin-2-yl)propan-1-one]	2 to 10 µM
CCCC(O)C(=O)N1CCN(c2nc(-c3ccccc3O)nc3cc(C)ccc23)CC1 (stereo not shown) [Example 134, 2-Hydroxy-1-(4-(2-(2-hydroxyphenyl)-7-methylquinazolin-4-yl)piperazin-1-yl)pentan-1-one]	2 to 10 µM
Cc1ccc2c(N3CCN(C(=O)[C@H](O)CC(C)(C)C)CC3)nc(-c3c(O)cccc3F)nc2c1 [Example 135, (R)-1-(4-(2-(2-Fluoro-6-hydroxyphenyl)-7-methylquinazolin-4-yl)piperazin-1-yl)-2-hydroxy-4,4-dimethylpentan-1-one]	< 2 µM
Cc1ccc2c(N3CCN(C(=O)[C@H](O)CC(C)C)CC3)nc(-c3cc(F)ccc3O)nc2c1 [Example 136, (R)-1-(4-(2-(5-Fluoro-2-hydroxyphenyl)-7-methylquinazolin-4-yl)piperazin-1-yl)-2-hydroxy-4-methylpentan-1-one]	> 10 µM
CC[C@H](O)C(=O)N1CCN(c2nc(-c3ccccc3O)nc3cc(C)ccc23)CC1 [Example 137, (S)-2-Hydroxy-1-(4-(2-(2-hydroxyphenyl)-7-methylquinazolin-4-yl)piperazin-1-yl)butan-1-one]	2 to 10 µM
Cc1ccc2c(N3CCN(C(=O)[C@@H](O)C(C)(C)C)CC3)nc(-c3c(O)cccc3F)nc2c1 [Example 138, (S)-1-(4-(2-(2-Fluoro-6-hydroxyphenyl)-7-methylquinazolin-4-yl)piperazin-1-yl)-2-hydroxy-3,3-dimethylbutan-1-one]	> 10 µM
CC(C)(C)[C@H](O)C(=O)N1CCN(c2nc(-c3ccccc3O)nc3ccc(F)cc23)CC1 [Example 139, (S)-1-(4-(6-Fluoro-2-(2-hydroxyphenyl)quinazolin-4-yl)piperazin-1-yl)-2-hydroxy-3,3-dimethylbutan-1-one]	2 to 10 µM
O=C(OCc1cccc2c1OCO2)N1CCN(c2nc(-c3ccccc3O)nc3ccccc23)CC1 [Example 140, (Benzo[d][1,3]dioxol-7-yl)methyl 4-(2-(2-hydroxyphenyl)quinazolin-4-yl)piperazine-1-carboxylate]	> 10 µM
Cc1ccc2c(N3CCN(C(=O)[C@@H](O)Cc4cnc[nH]4)CC3)nc(-c3ccccc3O)nc2c1 [Example 141, (S)-2-Hydroxy-1-(4-(2-(2-hydroxyphenyl)-7-methylquinazolin-4-yl)piperazin-1-yl)-3-(1H-imidazol-5-yl)propan-1-one]	> 10 µM
CC(C)C[C@@H](O)C(=O)N1CCN(c2nc(-c3ccccc3O)nc3ccc(C#N)cc23)CC1 [Example 142, 4-[4-((R)-2-Hydroxy-4-methyl-pentanoyl)-piperazin-1-yl]-2-(2-hydroxy-phenyl)-quinazoline-6-carbonitrile]	2 to 10 µM
CC(C)C[C@@H](O)C(=O)N1CCN(c2nc(-c3ccccc3O)nc3ccc(F)cc23)CC1 [Example 143, (R)-1-(4-(6-Fluoro-2-(2-hydroxyphenyl)quinazolin-4-yl)piperazin-1-yl)-2-hydroxy-4-methylpentan-1-one]	2 to 10 µM
Cc1ccc2c(N3CCN(C(=O)[C@@H](O)CC(C)C)CC3)nc(-c3ccccc3O)nc2c1 [Example 144, (S)-2-Hydroxy-1-(4-(2-(2-hydroxyphenyl)-7-methylquinazolin-4-yl)piperazin-1-yl)-4-methylpentan-1-one]	2 to 10 µM
Cc1ccc2c(N3CCN(C(=O)[C@H](O)CC(=O)O)CC3)nc(-c3ccccc3O)nc2c1 [Example 145, (R)-3-Hydroxy-4-(4-(2-(2-hydroxyphenyl)-7-methylquinazolin-4-yl)piperazin-1-yl)-4-oxobutanoic acid]	> 10 µM
CC(C)C[C@@H](O)C(=O)N1CCN(c2nc(-c3c(O)cccc3Cl)nc3ccccc23)CC1 [Example 146, (R)-1-(4-(2-(2-Chloro-6-hydroxyphenyl)quinazolin-4-yl)piperazin-1-yl)-2-hydroxy-4-methylpentan-1-one]	> 10 µM
Cc1ccc2c(N3CCN(C(=O)[C@H](O)CC(C)C)CC3)nc(-c3c(O)cccc3F)nc2c1 [Example 147, (R)-1-(4-(2-(2-Fluoro-6-hydroxyphenyl)-7-methylquinazolin-4-yl)piperazin-1-yl)-2-hydroxy-4-methylpentan-1-one]	2 to 10 µM
O=C(O[C@@H]1CCOC1)N1CCN(c2nc(-c3ccccc3O)nc3ccc(F)cc23)CC1 [Example 148, (R)-Tetrahydrofuran-3-yl 4-(6-fluoro-2-(2-hydroxyphenyl)quinazolin-4-yl)piperazine-1-carboxylate]	2 to 10 µM
Cc1ccc2c(N3CCN(C(=O)O[C@@H]4CCOC4)[C@@H](CO)C3)nc(-c3ccccc3O)nc2c1 [Example 149, (2R)-(R)-Tetrahydrofuran-3-yl 2-(hydroxymethyl)-4-(2-(2-hydroxyphenyl)-7-methylquinazolin-4-yl)piperazine-1-carboxylate]	> 10 µM
Cc1ccc2c(N3CCN(C(=O)[C@H](O)CC(C)C)CC3)nc(-c3c(C)cccc3O)nc2c1 [Example 150, (R)-2-Hydroxy-1-(4-(2-(2-hydroxy-6-methylphenyl)-7-methylquinazolin-4-yl)piperazin-1-yl)-4-methylpentan-1-one]	> 10 µM
CC(=O)C[C@@H](O)C(=O)N1CCN(c2nc(-c3ccccc3O)nc3cc(C)ccc23)CC1 [Example 151, (R)-2-Hydroxy-1-(4-(2-(2-hydroxyphenyl)-7-methylquinazolin-4-yl)piperazin-1-yl)pentan-1,4-dione]	> 10 µM
Cc1ccc2c(N3CCN(C(=O)OCc4ccncc4)CC3)nc(-c3ccccc3O)nc2c1 [Example 152, (Pyridin-4-yl)methyl 4-(2-(2-hydroxyphenyl)-7-methylquinazolin-4-yl)piperazine-1-carboxylate]	> 10 µM
CSCCC(O)C(=O)N1CCN(c2nc(-c3ccccc3O)nc3cc(C)ccc23)CC1 (stereo not shown) [Example 153, 2-Hydroxy-1-(4-(2-(2-hydroxyphenyl)-7-methylquinazolin-4-yl)piperazin-1-yl)-4-(methylthio)butan-1-one]	2 to 10 µM

From patent US7928107B2, “Quinazolines useful as modulators of ion channels” (Vertex Pharmaceuticals Incorporated, priority 2004, dated 2011)
